Test results as given in the NIST ThermoML archive (doi:10.1021/je060271a).

Conditions: 283.15 K, Liquid, Vibrating tube method

CCCCCC(=O)OCC(COC(=O)CCCCC)(COC(=O)CCCCC)COC(=O)CCCCC [pentaerythritol tetrahexanoate]
Conditions	mass density [kg/m3]
17954 kPa	1014.2
17972 kPa	1014.2
17987 kPa	1014.3
18002 kPa	1014.3
18020 kPa	1014.4
18035 kPa	1014.3
18050 kPa	1014.4
18068 kPa	1014.4
18083 kPa	1014.3
18098 kPa	1014.3
18116 kPa	1014.5
18131 kPa	1014.3
18146 kPa	1014.4
18161 kPa	1014.3
18179 kPa	1014.4
18195 kPa	1014.4
18210 kPa	1014.5
18228 kPa	1014.4
18243 kPa	1014.5
18259 kPa	1014.6
18277 kPa	1014.5
18292 kPa	1014.4
18308 kPa	1014.5
18326 kPa	1014.5
18341 kPa	1014.6
18356 kPa	1014.6
18375 kPa	1014.5
18391 kPa	1014.5
18407 kPa	1014.6
18425 kPa	1014.6
18441 kPa	1014.6
18457 kPa	1014.6
18472 kPa	1014.5
18491 kPa	1014.6
18506 kPa	1014.6
18522 kPa	1014.6
18541 kPa	1014.5
18557 kPa	1014.7
18576 kPa	1014.6
18592 kPa	1014.6
18608 kPa	1014.7
18624 kPa	1014.6
18643 kPa	1014.6
18659 kPa	1014.7
18676 kPa	1014.7
18695 kPa	1014.7
18711 kPa	1014.7
18727 kPa	1014.7
18746 kPa	1014.7
18763 kPa	1014.8
18779 kPa	1014.7
18796 kPa	1014.7
18815 kPa	1014.9
18832 kPa	1014.7
18848 kPa	1014.9
18868 kPa	1014.8
18884 kPa	1014.9
18901 kPa	1014.7
18917 kPa	1014.9
18937 kPa	1014.7
18954 kPa	1014.9
18970 kPa	1014.9
18990 kPa	1014.8
19005 kPa	1014.9
19024 kPa	1014.9
19040 kPa	1014.9
19057 kPa	1015
19075 kPa	1014.8
19091 kPa	1014.9
19107 kPa	1014.8
19126 kPa	1015
19142 kPa	1015
19161 kPa	1015
19177 kPa	1014.9
19193 kPa	1015
19212 kPa	1014.9
19228 kPa	1014.9
19245 kPa	1015.1
19264 kPa	1015
19281 kPa	1015.1
19297 kPa	1014.9
19313 kPa	1014.9
19333 kPa	1014.9
19350 kPa	1015
19366 kPa	1015
19382 kPa	1015.1
19402 kPa	1015
19418 kPa	1015.2
19438 kPa	1015.1
19455 kPa	1015.2
19471 kPa	1015.1
19488 kPa	1015.1
19509 kPa	1015.1
19525 kPa	1015.1
19542 kPa	1015.1
19559 kPa	1015.2
19579 kPa	1015.2
19596 kPa	1015.1
19616 kPa	1015.1
19633 kPa	1015.2
19649 kPa	1015.3
19666 kPa	1015.2
19686 kPa	1015.3
19703 kPa	1015.3
19720 kPa	1015.3
19741 kPa	1015.4
19758 kPa	1015.3
19778 kPa	1015.2
19796 kPa	1015.3
19813 kPa	1015.3
19830 kPa	1015.3
19851 kPa	1015.3
19868 kPa	1015.3
19885 kPa	1015.3
19906 kPa	1015.4
19922 kPa	1015.4
19941 kPa	1015.3
19957 kPa	1015.4
19973 kPa	1015.4
19989 kPa	1015.4
20008 kPa	1015.2
20024 kPa	1015.4
20040 kPa	1015.4
20059 kPa	1015.4
20075 kPa	1015.4
20094 kPa	1015.4
20110 kPa	1015.4
20126 kPa	1015.5
20143 kPa	1015.5
20162 kPa	1015.5
20178 kPa	1015.4
20194 kPa	1015.6
20213 kPa	1015.5
20228 kPa	1015.5
20246 kPa	1015.4
20262 kPa	1015.5
20277 kPa	1015.6
20293 kPa	1015.5
20312 kPa	1015.6
20328 kPa	1015.6
20343 kPa	1015.5
20362 kPa	1015.6
20378 kPa	1015.6
20395 kPa	1015.7
20410 kPa	1015.6
